Assays:
Format in all cases: cell-based
[1] = tested on: MRCVI; experiment: ELISA of secreted pro-collagen I alpha 1 (Type I Collagen) from human lung fibroblast MRCVI
Method: (§1) Compounds reconstitution and stock solution: Prior to treatment, DMSO was diluted in PMS until 0,1% DMSO was made. Each compound was solved in 0,1% DMSO (3: 2,5 mg/mL, 1: 2.5 mg/mL, 10: 1 mg/mL, 5: 1mg/mL, 7: 0,6 mg/mL, 16: 1 mg/mL 17: 1 mg/mL, 44: 0,6 mg/mL, 36: 1mg/mL.
(§2) Next the different stock solution with 150 µg and 250 µg of each compound per 1 ml culture solution was made by adding the 0,1% DMSO compound solution in the right amount to culture solution (DMEM with 10% FCS and 1% penicillin-streptomycin).
As cell line MRCV1 was used, which is an immortalized cell line originated from human lung fibroblast, bought in 2001.
The cell line was thawed and cultured in Dulbeco's modified Eagel's medium (DMEM, Gibcon, USA) supplemented with 10% fetal bovine serum (FBS, Gibco, Germany) and 1% penicillin-streptomycin (PS, Gibco, USA) at 37 °C in a humidified atmosphere with 5% CO2 until a sufficient number of cells were culture in T75 culture bottles. After reaching a confluence of 80% to 90%, the cells were separated using trypsin and counted. Next 100.000 cells were planted in each well of a 6 well plate in replicates, washed and the DMEM solution with 150 µg and 250 µg/ml substance/DMEM and DMEM with no substance as control was added.
(§3) After 48h and after 72h 100 µl supernatant of each well was taken, labelled and frozen at -20° degree Celsius. Prior to perform ELISA the medium was depending on the cell line diluted 1:50 or 1:100 with PBS, otherwise the concentration of collagen fibers was too high to be measured.
The medium containing the secretion of the human lung fibroblast MRCVI was collected after 48h and 72h treatment. Secretion of pro-collagen 1 was assessed with human pro-collagen I alpha 1 DuoSet ELISA (R&D systems, USA) To prepare the Elisa plate, Human pro-Collagen I a capture antibody was diluted in ELISA plate-coating buffer at 4µg/mL working concentration. 100 µl of diluted Capture antibody was added to 96-well microplates and incubated over night at room temperature. After three times washing with Wash Buffer, microplates were blocked by adding 300 µl of Reagent Diluent for 1 hour at room temperature. To proceed the ELISA Human pro-collagen I α1 Standards were diluted in Reagent Diluent (range between 31,3 pg/mL - 2000 pg/mL) and 100 µl of standards or conditioned mediums were added to designated wells. Microplates were incubated at room temperature for 2 hours. Human Pro-collagen I α1 Detection Antibody was prepared in Reagent Diluent at […] working concentration and 100 µl of diluted Detection Antibody was applied for 2 hours at room temperature after extensive washing. Then, working solution of Streptavidin-HRP with Reagent Diluent was prepared by diluting 1:40 and added into each well. After 20 minutes at room temperature incubation, microplates were washed and applied with 100 µl of Substrate Solution for 20 minutes followed by Stop Solution after washing. Finally, signals were measured at 450 nm absorbance by PHomo Microplate Reader (Autobio, China) The amount of pro-collagen 1 was quantified by extrapolating the signal into a linear range of a pro-collagen 1 standard curve. Screening compounds were typically tested at concentration of 150 and 250 µg/mL. The dose response data for each compound and the different cell lines were obtained by nonlinear regression analysis using Prism 9 software (GraphPad, La Jolla, USA).

[2] = tested on: HRO159N; experiment: ELISA of secreted pro-collagen I alpha 1 (Type I Collagen) from human dermal fibroblasts HRO159N; settings: 250 µg
Method: as §1, §2
(§4) Three different cell lines were used for the experiments. GM637 is an immortalized cell line originated from human skin fibroblasts, bought in 2001, UKE1 and […] are cell lines originated from human dermal fibroblasts (dog ear) nurtured from patients, between 60 and 80 years old being completely anonymized at the clinic for dermatology, Rostock.
(§5) The cells lines were thawed and were cultured in Dulbeco's modified Eagel's medium (DMEM, Gibcon, USA) supplemented with 10% fetal bovine serum (FBS, Gibco, Germany) and 1% penicillin-streptomycin (PS, Gibco, USA) at 37 °C in a humidified atmosphere with 5% CO2 until a sufficient number of cells were culture in T75 culture bottles. After reaching a confluence of 80% to 90%, the cells were separated using trypsin and counted. Next 100.000 cells were planted in each well of a 6 well plate in replicates, washed and the DMEM solution with 150 µg and 250 µg/ml substance/DMEM and DMEM with no substance as control was added.
as §3
(§6) The media containing the secretion of the different human dermal fibroblasts GM637, UKE1, and HRO159N were collected after 48h and 72h treatment. Secretion of pro-collagen 1 was assessed with human pro-collagen I alpha 1 DuoSet ELISA (R&D systems, USA) To prepare the Elisa plate, Human pro-Collagen I a capture antibody was diluted in ELISA plate-coating buffer at 4µg/mL working concentration. 100 µl of diluted Capture antibody was added to 96-well microplates and incubated over night at room temperature. After three times washing with Wash Buffer, microplates were blocked by adding 300 µl of Reagent Diluent for 1 hour at room temperature. To proceed the ELISA Human pro-collagen I α1 Standards were diluted in Reagent Diluent (range between 31,3 pg/mL - 2000 pg/mL) and 100 µl of standards or conditioned mediums were added to designated wells. Microplates were incubated at room temperature for 2 hours. Human Pro-collagen I α1 Detection Antibody was prepared in Reagent Diluent at […] working concentration and 100 µl of diluted Detection Antibody was applied for 2 hours at room temperature after extensive washing. Then, working solution of Streptavidin-HRP with Reagent Diluent was prepared by diluting 1:40 and added into each well. After 20 minutes at room temperature incubation, microplates were washed and applied with 100 µl of Substrate Solution for 20 minutes followed by Stop Solution after washing. Finally, signals were measured at 450 nm absorbance by PHomo Microplate Reader (Autobio, China) The amount of pro-collagen 1 was quantified by extrapolating the signal into a linear range of a pro-collagen 1 standard curve. Screening compounds were typically tested at concentration of 150 and 250 µg/mL. The dose response data for each compound and the different cell lines were obtained by nonlinear regression analysis using Prism 9 software (GraphPad, La Jolla, USA).

[3] = tested on: GM637; experiment: ELISA of secreted pro-collagen I alpha 1 (Type I Collagen) from human dermal fibroblasts GM637
Method: as §1, §2, §4, §5, §3, §6

[4] = tested on: UKE1; experiment: ELISA of secreted pro-collagen I alpha 1 (Type I Collagen) from human dermal fibroblasts UKE1
Method: as §1, §2, §4, §5, §3, §6

## [2H]C([2H])([2H])c1nnc2c3ccccc3cnn12 [Compound 7, 3-D3-Methyl-1,2,4-triazolo[3,4-a]phthalazine]
[1]; 48h, 150 µg
  collagen reduction percentage in comparison to the standard (100 %): 19%
[1]; 48h, 250 µg
  collagen reduction percentage in comparison to the standard (100 %): 9%
[1]; 72 h, 150 µg
  collagen reduction percentage in comparison to the standard (100 %): 14%
[1]; 72 h, 250 µg
  collagen reduction percentage in comparison to the standard (100 %): 3%
[2]; 48h
  collagen reduction percentage in comparison to the standard (100 %): 43%
[2]; 72 h
  collagen reduction percentage in comparison to the standard (100 %): 33%
[3]; 48h, 150 µg
  collagen reduction percentage in comparison to the standard (100 %): 101%
[3]; 48h, 250 µg
  collagen reduction percentage in comparison to the standard (100 %): 75%
[3]; 72 h, 150 µg
  collagen reduction percentage in comparison to the standard (100 %): 43%
[3]; 72 h, 250 µg
  collagen reduction percentage in comparison to the standard (100 %): 30%
[4]; 48h, 150 µg
  collagen reduction percentage in comparison to the standard (100 %): 79%
[4]; 48h, 250 µg
  collagen reduction percentage in comparison to the standard (100 %): 54%
[4]; 72 h, 150 µg
  collagen reduction percentage in comparison to the standard (100 %): 44%
[4]; 72 h, 250 µg
  collagen reduction percentage in comparison to the standard (100 %): 47%

Reference: patent EP4458358A1, “PYRIDAZINE COMPOUNDS FOR ANTIFIBROTIC THERAPY” (Tietze Chemical Consulting UG, priority 2023, dated 2024)
